# Paper PMC12655252, “Synthesis of 1H-Pyrrolo[3,2-g]isoquinoline Derivatives as Ligands Targeting Haspin Kinase” (Molecules, 2025)
# Legend:
# HsCK1ε = target: T1, HsCK1ε (Homo sapiens, UniProt P49674); experiment: ADP-Glo in vitro kinase inhibition assay, CK1ε; format: biochemical; conditions: 10 μM ATP, read-out: CK1 % residual activity; for remaining activity at 1 µM: 1 μM compound; for remaining activity at 10 µM: 10 μM compound
# T1 construct: made in house; host or cells: Sf9 insect cells
# Description: (§1) We previouly reported that substitution at the 3-position with halogen atoms or pyridinyl or formyl groups was compatible with high potency toward Haspin kinase. To check if the current structural changes were in line with potent Haspin inhibition and high selectivity, enabling consideration of these compounds as possible targeting ligands for the PROTAC approach, compounds 2, 3, 8–11, and 15–17 were evaluated toward a panel of eight protein kinases, including Haspin, as well as other kinases known to be frequently cross-inhibited (CLK1, DYRK1A, CDK9/Cyclin T, GSK-3β, CK1ε, CDK5/p25, and Pim1) (Table 1). The percentage of residual kinase activity was evaluated at 10 μM and 1 μM compound concentrations. […].
# (§2) Kinase inhibition was tested in 384-well plates using the ADP-GloTM assay kit (Promega, Madison, WI, USA) according to the procedure recommended by the manufacturer. Reactions were set up in a final volume of 6 μL in an appropriate kinase buffer (10 mM MgCl2, 1 mM EGTA, 1 mM DTT, 25 mM Tris-HCl pH 7.5, 50 μg/mL heparin) with either protein or peptide as the substrate in the presence of 10 μM ATP. To stop the kinase reaction, 6 μL of ADP-GloTM Kinase Reagent was added after 30 min at 30 °C. Then, after 50 min of incubation at room temperature (RT), 12 μL of Kinase Detection Reagent was added. The transmitted signal was measured after 1 h at RT using the Envision (Perkin Elmer, Waltham, MA, USA) microplate luminometer and expressed in relative light units (RLU). In order to determine the half-maximal inhibitory concentration (IC50), all assays were performed in duplicate in the absence or presence of increasing doses of the tested compounds. GraphPad Prism10 software (GraphPad Software, San Diego, CA, USA) was used to fit dose–response curves and to determine the IC50 values. Kinase activities are given as percentages of maximal activity, i.e., measured in the absence of inhibitor. Peptide substrates were obtained from Proteogenix (Schiltigheim, France).
# (§3) The following protein kinases were analyzed in this study: CDK5/p25 (human, vector pGEX-2T, expressed in bacteria; kindly provided by Dr. J. H. Wang) was assayed with 0.8 μg/μL of histone H1 as substrate; HsCDK9/CyclinT (NP_001252/KAI4065659, cloned in pTEFb vector, expressed by baculovirus in Sf9 insect cells) were assayed with 0.27 μg/μL of the following peptide: […], as substrate; HsCK1ε (NP_001885, cloned in pFAST-BAC vector, expressed in Sf9 insect cells) was assayed with 0.022 μg/μL of the following peptide: […]pAYSITA (“Sp” stands for phosphorylated serine) as CK1-specific substrate; HsGSK3β (AAH12760, cloned in pFAST-BAC, expressed by baculovirus in Sf9 insect cells) were assayed with 0.010 μg/μL of GS-1 peptide, a GSK-3-selective substrate ([…]pEDEEE); HsHaspin-kd (NP_114171, kinase domain, amino acids 470–798 cloned in pGEX-6P-3, expressed in bacteria) was assayed with 0.007 μg/μL of histone H3 (1–21) peptide ([…]) as substrate; Pim-1 (KAI4018123, expressed in bacteria) was assayed with 0.8 μg/μL of histone H1 as substrate; HsCLK1 (NP_004062, cloned in pFAST-BAC, expressed in Sf9 insect cells) was assayed with 0.027 μg/μL of the peptide: […]; RnDYRK1A-kd (Rattus norvegicus, amino acids 1–499, pGEX-2TK, expressed in bacteria, gift from Dr. W. Becker, Aachen, Germany) was tested in the presence of 0.033 μg/μL of the peptide: […].
# CDK5/p25 = target: T2, CDK5/p25 (Homo sapiens, UniProt Q00535); experiment: ADP-Glo in vitro kinase inhibition assay, CDK5/p25; format: biochemical; conditions: 10 μM ATP, read-out: CDK5 % residual activity; for remaining activity at 1 µM: 1 μM compound; for remaining activity at 10 µM: 10 μM compound
# T2 construct: made in house; host or cells: bacteria
# Description: as §1, §2, §3
# [1] = system: endogenous Haspin kinase (phosphorylation of Histone H3 on Thr3) in U2OS cells; experiment: H3T3ph immunofluorescence assay in U2OS cells (cellular endogenous Haspin activity); format: cell-based; conditions: 2.5 μM compound, 16 h, early mitotic cells; for inhibition at 2.5 µM: Homo sapiens, read-out: Inhibition of endogenous Haspin activity (H3T3 phosphorylation) compared to DMSO control
# Description: In order to assess the ability of our most interesting compounds to inhibit cellular endogenous Haspin kinase, we evaluated their effects on the phosphorylation of Histone H3 on Thr3, a bona fide Haspin substrate (Figure 4). We treated osteosarcoma U2OS cells with 2.5 μM of selected compounds for 16 h before quantifying H3T3 phosphorylation by immunofluorescence on early mitotic cells (Figure 4A,B). […] This discrepency could be explained by the inability of this compound to cross the plasma membrane or by reduced stability in a cellular environment.
# Ethical approval for this study was obtained (9 July 2025) from DGRI-LabOGM (APPROVAL NUMBER: L1-2373). U2OS cells (purchased from ATCC, Manassas, VA, USA, reference HTB-96) were grown in DMEM medium (Dulbecco’s Modified Eagle Medium, High glucose; GlutaMAX, Life Technologies, Carlsbad, CA, USA) supplemented with 10% fetal bovine serum (Gibco, Grand Island, NY, USA) in a 5% CO2 humidified atmosphere. Cells grown on coverslips were treated for 16 h with each compound or 0.025% DMSO, then fixed with 4% paraformaldehyde in PBS, permeabilized by 0.15% Triton-X100 for 2 min, and blocked for 12 min in 4% BSA in PBS. Immunofluorescence assay was performed using standard protocols with a rabbit anti-phospho-Thr3 Histone H3 and a mouse anti-a-Tubulin (B-5-1-2) obtained from Merck Millipore, Burlington, MA, USA (1/2000 dilution). Coverslips were mounted with Vectashield containing DAPI (Vector Laboratories, Newark, CA, USA). Images were acquired with a Coolsnap HQ2 CCD camera (Photometrics, Tucson, AZ, USA) on a Zeiss Axio microscope (Carl Zeiss, Oberkochen, Germany) using a 63x NA 1.46 objective. Image acquisition and processing were performed using Zen Blue (Carl Zeiss). The H3T3ph signal on chromosomes was normalized against the DAPI signal and analyzed using ImageJ software (NIH, Version 1.54p). Graphs were produced and statistical analysis was performed using GraphPad Prism 10. p-values were determined by t-test; n.s., not significant; **** p ≤ 0.0001.
# Figure 4 Evaluation of selected compounds on cellular endogenous Haspin activity. (A) U2OS cells were treated with 2.5 μM of each compound or 1 μM of CHR6494 (CHR) or DMSO for 16 h. Immunofluorescence assay was performed with anti-pH3T3 antibody (green) and anti-a-Tubulin (red); DNA was labelled with DAPI (blue). Representative images of early mitotic cells for each condition are presented. Scale bar: 5 μm. (B) Scatter plot representing H3T3ph/DAPI signal ratio indicative of Haspin activity; n > 17 mitotic cells per condition. n.s., not significant; **** p ≤ 0.0001.
# T1 sequence (P49674 whole entry): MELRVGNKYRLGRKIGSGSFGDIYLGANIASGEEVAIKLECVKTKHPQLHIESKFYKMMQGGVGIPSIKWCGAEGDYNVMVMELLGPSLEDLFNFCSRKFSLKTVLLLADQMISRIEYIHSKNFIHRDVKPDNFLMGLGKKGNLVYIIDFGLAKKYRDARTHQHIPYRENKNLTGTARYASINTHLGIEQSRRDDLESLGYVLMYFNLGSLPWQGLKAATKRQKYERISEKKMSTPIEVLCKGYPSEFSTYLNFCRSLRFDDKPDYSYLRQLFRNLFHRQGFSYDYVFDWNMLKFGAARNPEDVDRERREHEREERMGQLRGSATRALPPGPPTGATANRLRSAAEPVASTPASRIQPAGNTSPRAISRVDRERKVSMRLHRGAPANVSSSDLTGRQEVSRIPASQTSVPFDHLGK
# T2 sequence (Q00535 whole entry): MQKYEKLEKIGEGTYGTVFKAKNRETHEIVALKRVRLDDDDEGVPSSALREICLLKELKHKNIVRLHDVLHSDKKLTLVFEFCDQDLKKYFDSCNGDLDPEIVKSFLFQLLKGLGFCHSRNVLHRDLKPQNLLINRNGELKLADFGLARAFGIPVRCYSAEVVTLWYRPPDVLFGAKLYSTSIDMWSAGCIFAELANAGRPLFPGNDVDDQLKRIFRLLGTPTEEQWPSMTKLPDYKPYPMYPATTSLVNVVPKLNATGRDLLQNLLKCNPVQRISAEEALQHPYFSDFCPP
# T2 sequence (Q15078 99-307 partner limits assumed): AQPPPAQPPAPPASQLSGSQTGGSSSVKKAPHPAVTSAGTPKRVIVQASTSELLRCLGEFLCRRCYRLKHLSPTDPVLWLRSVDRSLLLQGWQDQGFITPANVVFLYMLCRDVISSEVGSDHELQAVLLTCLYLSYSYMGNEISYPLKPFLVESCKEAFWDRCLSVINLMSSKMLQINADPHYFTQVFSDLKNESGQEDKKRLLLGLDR
Structure (SMILES),remaining activity at 1 µM (HsCK1ε) [%],remaining activity at 10 µM (HsCK1ε) [%],remaining activity at 1 µM (CDK5/p25) [%],remaining activity at 10 µM (CDK5/p25) [%],inhibition at 2.5 µM [1] [%],Inhibition of endogenous Haspin activity (H3T3 phosphorylation) compared to DMSO control [1]
"Nc1ccc(-c2c[nH]c3cc4cnccc4cc23)cn1 [Compound 3, 5-(1H-Pyrrolo[3,2-g]isoquinolin-3-yl)pyridin-2-amine]",78,63,100,100,~43,
"COC(=O)/C=C/c1c[nH]c2cc3cnccc3cc12 [Compound 8, Methyl (E)-3-(1H-Pyrrolo[3,2-g]isoquinolin-3-yl)prop-2-enoate]",90,77,72,100,,did not show any significant inhibitory potential
"c1cc2cc3c(-c4cc[nH]n4)c[nH]c3cc2cn1 [Compound 15, 3-(1H-Pyrazol-3-yl)-1H-pyrrolo[3,2-g]isoquinoline]",100,48,98,76,66,
"c1cc2cc3c(-c4cn[nH]c4)c[nH]c3cc2cn1 [Compound 16, 3-(1H-Pyrazol-4-yl)-1H-pyrrolo[3,2-g]isoquinoline]",77,12,91,10,77,
"c1c[nH]c(-c2c[nH]c3cc4cnccc4cc23)c1 [Compound 17, 3-(1H-Pyrrol-2-yl)-1H-pyrrolo[3,2-g]isoquinoline]",92,81,75,81,~43,
